Results on 2 compounds are retold here after publication PMC2824011 (Analytical biochemistry, 2009).

By Ki is commonly meant the equilibrium dissociation constant of an inhibitor or competing ligand from its target.

The target of assay [1] is T1, human lysosomal mannosidase (HLM) (Homo sapiens, UniProt O00754).
T1 sequence (O00754 50-1011): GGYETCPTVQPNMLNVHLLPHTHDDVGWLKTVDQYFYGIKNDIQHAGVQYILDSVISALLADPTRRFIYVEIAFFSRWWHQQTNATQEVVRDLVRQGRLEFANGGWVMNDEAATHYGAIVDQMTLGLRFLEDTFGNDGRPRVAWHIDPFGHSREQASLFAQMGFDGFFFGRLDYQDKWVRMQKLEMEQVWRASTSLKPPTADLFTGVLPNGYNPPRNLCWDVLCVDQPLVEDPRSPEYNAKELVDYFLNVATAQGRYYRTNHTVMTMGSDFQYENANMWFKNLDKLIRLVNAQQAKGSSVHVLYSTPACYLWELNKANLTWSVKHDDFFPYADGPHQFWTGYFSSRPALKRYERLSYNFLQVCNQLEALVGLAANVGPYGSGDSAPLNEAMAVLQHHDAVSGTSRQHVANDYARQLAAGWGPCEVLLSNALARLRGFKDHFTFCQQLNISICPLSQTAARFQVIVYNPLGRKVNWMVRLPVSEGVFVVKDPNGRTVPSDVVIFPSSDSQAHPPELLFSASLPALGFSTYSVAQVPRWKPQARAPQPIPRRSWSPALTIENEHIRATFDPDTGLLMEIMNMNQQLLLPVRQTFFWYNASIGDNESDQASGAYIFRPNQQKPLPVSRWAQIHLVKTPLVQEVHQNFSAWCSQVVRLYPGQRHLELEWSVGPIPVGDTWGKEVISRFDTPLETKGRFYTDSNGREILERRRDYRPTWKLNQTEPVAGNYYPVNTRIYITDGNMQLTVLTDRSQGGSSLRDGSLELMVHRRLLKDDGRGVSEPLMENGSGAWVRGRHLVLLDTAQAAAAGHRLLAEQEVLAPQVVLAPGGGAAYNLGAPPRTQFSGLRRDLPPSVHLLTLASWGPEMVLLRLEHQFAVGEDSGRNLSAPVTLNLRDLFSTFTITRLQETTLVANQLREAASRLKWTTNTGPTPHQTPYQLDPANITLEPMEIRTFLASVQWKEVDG
As to the kind of experiment: continuous fluorometric turnover assay of purified enzyme, pH […]. It is filed as biochemical.

The target in assay [2] is T2, Golgi α-mannosidase II (dGMII) (Drosophila melanogaster, UniProt Q24451).
T2 sequence (Q24451 76-1108): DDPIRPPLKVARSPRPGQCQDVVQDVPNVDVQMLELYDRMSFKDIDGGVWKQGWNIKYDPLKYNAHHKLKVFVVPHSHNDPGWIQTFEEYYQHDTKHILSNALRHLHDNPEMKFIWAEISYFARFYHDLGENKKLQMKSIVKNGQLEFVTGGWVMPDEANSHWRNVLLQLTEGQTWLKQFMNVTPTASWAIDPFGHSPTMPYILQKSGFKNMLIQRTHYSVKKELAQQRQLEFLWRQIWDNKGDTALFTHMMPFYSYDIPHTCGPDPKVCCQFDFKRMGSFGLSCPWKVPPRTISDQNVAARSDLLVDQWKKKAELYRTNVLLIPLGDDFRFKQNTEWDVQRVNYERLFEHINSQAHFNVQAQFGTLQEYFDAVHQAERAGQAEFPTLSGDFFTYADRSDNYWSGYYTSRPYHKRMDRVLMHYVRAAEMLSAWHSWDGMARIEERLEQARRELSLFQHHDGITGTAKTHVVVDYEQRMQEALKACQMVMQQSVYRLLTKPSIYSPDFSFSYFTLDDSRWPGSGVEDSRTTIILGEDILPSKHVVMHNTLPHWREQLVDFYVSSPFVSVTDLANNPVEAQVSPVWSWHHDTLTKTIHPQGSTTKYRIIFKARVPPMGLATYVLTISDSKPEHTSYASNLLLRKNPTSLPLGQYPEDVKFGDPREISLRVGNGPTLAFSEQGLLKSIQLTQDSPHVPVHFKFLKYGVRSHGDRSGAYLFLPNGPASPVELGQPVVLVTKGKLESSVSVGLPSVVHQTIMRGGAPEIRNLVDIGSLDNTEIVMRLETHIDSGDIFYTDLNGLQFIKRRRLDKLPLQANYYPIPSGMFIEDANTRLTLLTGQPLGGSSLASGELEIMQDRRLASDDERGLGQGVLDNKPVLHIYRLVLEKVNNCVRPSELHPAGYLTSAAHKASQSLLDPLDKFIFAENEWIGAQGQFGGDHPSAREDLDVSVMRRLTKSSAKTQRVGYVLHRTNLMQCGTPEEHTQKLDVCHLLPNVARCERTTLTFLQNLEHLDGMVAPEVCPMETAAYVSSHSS
As to the kind of experiment: continuous fluorometric enzyme assay with Res-Man substrate, pH […]. It is filed as biochemical.

In the case of `O=c1ccc2nc3ccc(O[C@H]4O[C@H](CO)[C@@H](O)[C@H](O)[C@@H]4O)cc3oc-2c1` [Res-Man, resorufin α-D-mannopyranoside], in assay [1], the “continuous fluorometric turnover assay of purified enzyme, pH 6.0” value is “recombinant human lysosomal mannosidase (HLM) (◊) using the substrate resorufin-α-D-mannopyranoside (Res-Man)”.

For `O[C@H]1[C@H]2[C@H](O)CCCN2C[C@H]1O` [swainsonine], the Ki in assay [2] was determined as 44.7 nM.
